Measured values as given in patent publication US4837305A, “Derivatives of β-adrenergic antagonists” (The Regents of the University of California, priority 1987, dated 1989).

The molecules below were run on S-49 mouse lymphoma cells (assay: Blocking of isoproterenol-promoted cyclic AMP accumulation in S-49 mouse lymphoma cells). Details: relative to practolol; blocking isoproterenol-promoted cyclic AMP release in S49 cells.
Assay type: cell-based
Text: The β-adrenergic antagonist derivatives can be tested for biological and pharmacological activity by an in vitro technique. In this test a measurement is taken of the concentration of the derivative required to block a specified dose of isoproterenol (β-adrenergic agonist) in S-49 mouse lymphoma cells as measured by cyclic AMP accumulation therein. Details of the test utilizing S-49 mouse lymphoma cells is set forth in Coffino et al, In Vitro, 14, #1, 140 (1978). The activities of the β-adrenergic derivatives are expressed as the relative potencies of the unmodified drug, i.e., the β-adrenergic antagonist to that of the derivative drug.
With `CC(=O)Nc1ccc(OCC(O)CNC(C)CCCCC(=O)Nc2ccc(C)cc2)cc1` (stereo not shown) [Compound 17, 6-[3-(4-Acetamidophenoxy)-2-Hydroxypropylamino]-Heptanoic Acid p-Toluide] the “Rel. Potency (potency relative to the parent compound)” value was 2.1 × 10^1.
In the case of `CC(=O)Nc1ccc(OCC(O)CNC(C)CCCCC(=O)Nc2ccc(C(F)(F)F)cc2)cc1` (stereo not shown) [Compound 18, 6-[3-(4-Acetamidophenoxy)-2-Hydroxypropylamino]-Heptanoic Acid p-Trifluoromethylanilide], the “Rel. Potency (potency relative to the parent compound)” value is reported as 6.0.
In the case of `CC(=O)Nc1ccc(OCC(O)CNC(C)CCCCC(=O)Nc2ccc(C[C@H](NC(C)=O)C(=O)NCCCO)cc2)cc1` (stereo partly drawn) [Compound 19, N^α -Acetyl-p-{6-(3-[4-Acetamidophenoxy]-2-Hydroxypropylamino)-Heptanoylamino}-L-Phenylalanyl-3-Hydroxypropylamide], the “Rel. Potency (potency relative to the parent compound)” value is reported as 1.5.

Same assay, conditions: relative to propranolol; blocking isoproterenol-promoted cyclic AMP release in S49 cells
In the case of `Cc1ccc(NC(=O)CCC(C)NCC(O)COc2cccc3ccccc23)cc1` (stereo not shown) [Compound 7, 4-[3-(1-Naphthyloxy)-2-Hydroxypropylamino]-Pentanoic Acid p-Toluide], the “Rel. Potency (potency relative to the parent compound)” value is reported as 6.8 × 10^-5.
In the case of `Cc1ccc(NC(=O)CCCC(C)NCC(O)COc2cccc3ccccc23)cc1` (stereo not shown) [Compound 8, 5-[3-(1-Naphthyloxy)-2-Hydroxypropylamino]-Hexanoic Acid p-Toluide], the “Rel. Potency (potency relative to the parent compound)” value is reported as 6.8 × 10^-5.
With `Cc1ccc(NC(=O)CCCCC(C)NCC(O)COc2cccc3ccccc23)cc1` (stereo not shown) [Compound 9, 6-[3-(1-Naphthyloxy)-2-Hydroxypropylamino]-Heptanoic Acid p-Toluide] the “Rel. Potency (potency relative to the parent compound)” value was 4.5 × 10^2.
In the case of `Cc1ccc(NC(=O)CCCCCC(C)NCC(O)COc2cccc3ccccc23)cc1` (stereo not shown) [Compound 10, 7-[3-(1-Naphthyloxy)-2-Hydroxypropylamino]-Octanoic Acid-p-Toluide], the “Rel. Potency (potency relative to the parent compound)” value is reported as 3.7 × 10^-2.
`CC(CCCCC(=O)Nc1ccc(C(F)(F)F)cc1)NCC(O)COc1cccc2ccccc12` (stereo not shown) [Compound 11, 6-[3-(1-Naphthyloxy)-2-Hydroxypropylamino]-Heptanoic Acid p-Trifluoromethylanilide] was tested, and the “Rel. Potency (potency relative to the parent compound)” value was 8.75.
With `CC(CCCCC(=O)Nc1ccc(CCC(=O)O)cc1)NCC(O)COc1cccc2ccccc12` (stereo not shown) [Compound 12, 3-{p-(6-[3-(1-Naphthyloxy)-2-Hydroxypropylamino]Heptanoylamino)-Phenyl}-Propionic Acid] the “Rel. Potency (potency relative to the parent compound)” value was 8.8 × 10^-1.
`CCCCNC(=O)CCc1ccc(NC(=O)CCCCC(C)NCC(O)COc2cccc3ccccc23)cc1` (stereo not shown) [Compound 13, 3-{p-(6-[3-(1-Naphthyloxy)-2-Hydroxypropylamino]Heptanoylamino)-Phenyl}-Propionic Acid n-Butylamide] was tested, and the “Rel. Potency (potency relative to the parent compound)” value was 4.5 × 10^-2.
In the case of `CCCCNC(=O)CCCCC(C)NCC(O)COc1cccc2ccccc12` (stereo not shown) [Compound 14, 6-[3-(1-Naphthyloxy)-2-Hydroxypropylamino]-Heptanoic Acid n-Butylamide], the “Rel. Potency (potency relative to the parent compound)” value is reported as 9.1 × 10^-1.
`CC(=O)N[C@@H](Cc1ccc(NC(=O)CCCCC(C)NCC(O)COc2cccc3ccccc23)cc1)C(=O)NCCCO` (stereo partly drawn) [Compound 15, N^α -Acetyl-p-{6-(3-[1-Naphthyloxy]-2-Hydroxypropylamino)-Heptanoylamino}-L-Phenylalanyl-3-Hydroxypropylamide] was tested, and the “Rel. Potency (potency relative to the parent compound)” value was 1.75 × 10^-1.
With `CNC(=O)CNC(=O)[C@H](Cc1ccc(NC(=O)CCCCC(C)NCC(O)COc2cccc3ccccc23)cc1)NC(=O)OC(C)(C)C` (stereo partly drawn) [Compound 16, N^α -t-Butyloxycarbonyl-p-{6-(3-[1-Naphthyloxy]-2-Hydroxypropylamino)-Heptanoylamino}-L-Phenylalanyl-Glycyl-Methylamide] the “Rel. Potency (potency relative to the parent compound)” value was 7.8 × 10^-4.
